Results from US8067372B2, “Modulation of angiogenesis by A-beta peptide fragments” (Alzheimer's Institute of America, Inc., priority 2005, dated 2011).
“Also recorded” adds a separate entry of the source.

Key:
[1] = test system: Human Umbilical Vein Endothelial Cells (HUVEC); experiment: Capillary tube formation assay (HUVEC on Matrigel); type: cell-based; settings: for Total length of capillary tubes (percentage of control): ANOVA main effect: 0, 1, 5 and 10 μM doses
Method: All in-vitro experiments were performed using primary Human Umbilical Vein Endothelial Cells (HUVEC) at passages 3-4, purchased from American Tissue Type Culture Collection (ATCC, VA). Cells were cultured in F12K Medium (ATCC, VA) supplemented with 10% fetal bovine serum (Invitrogen, CA), 0.1 mg/ml Heparin and 0.03 mg/ml endothelial cell growth supplement (Sigma-Aldrich, MO). At all times, cells were maintained in a sterile cell culture incubator at 37° C. and 5% CO2.
HUVEC (7.5×10^4 cells/ml) in 500 μl of medium were seeded in 24-well plates, on top of a layer of Matrigel basement membrane matrix (Invitrogen, CA) in F12K medium (ATCC, VA) containing 4% serum (Invitrogen, CA), 0.1 mg/ml Heparin and 0.03 mg/ml endothelial cell growth supplement (Sigma-Aldrich, MO). Cells were incubated with peptides (or control conditions) for 24 hours. Control wells received the same volume of vehicle (DMSO) used to dilute the peptides. Network formation experiments were performed in triplicate, and at least 2 randomly chosen fields were photographed for each well using a 4× objective. Capillary length was measured using Image Pro Plus software (Media Cybernetic, Inc., MD).

[2] = test system: VEGF-induced angiogenesis; experiment: Rat corneal micropocket assay; type: in vivo; settings: 0.5, 2.5 and 5.0 μg with 200 ng VEGF; 7 days
Method: The vascular growth response was measured seven days post implantation. The lengths and widths of vessel outgrowths were measured and the angiogenic index (AI) calculated using the formula L×W=AI. Rats were perfused with colloidal carbon, eyes enucleated and fixed in 10% buffered formalin. Corneas were removed under an Olympus dissecting microscope and mounted on glass slides with Crystal Mount media.

[3] = tested at 1, 5 and 10 μM, 24 hours

| Substance | Total length of capillary tubes (percentage of control): ANOVA main effect [1] | anti-angiogenic activity in capillary network formation [1, 3] | further results |
| --- | --- | --- | --- |
| DAEFRHDSGYEVAAQALVFFAEDVGSNK (listed as Homo sapiens) [Aβ1-28 Mutant 2] | no main effect |  |  |
| DAEFRHDSGYEVGGQGLVFFAEDVGSNK (listed as Homo sapiens) [Aβ1-28 Mutant 1] | no main effect |  |  |
| GSNKGAIIGLM (listed as Homo sapiens) [Aβ25-35] |  | not active | anti-angiogenic activity in capillary network formation ([1]; 5 μM): slightly active; anti-angiogenic activity in capillary network formation ([1]; 10 μM): not at 10 μM |
| HHHQKLVFF (listed as Homo sapiens) [Fragment 1] | significant main effect |  | inhibition of VEGF-induced angiogenesis in vivo (Angiogenic Index) [2]: appears antiangiogenic in vivo; Total length of capillary tubes (percentage of control): post hoc effect ([1]; 1, 5 and 10 μM, P<0.005): significant effects |
| LMVGGVVIA (listed as Homo sapiens) [Aβ34-42] |  | pro-angiogenic activity; also recorded: did not display any anti-angiogenic activity; also recorded: promoted angiogenesis in a dose dependent manner; also recorded: not active |  |
| LVFFAEDVGSNK (listed as Homo sapiens) [Aβ17-28] |  | did not display any anti-angiogenic activity; also recorded: not active |  |
| YEVHHQK (listed as Homo sapiens) [Aβ10-16] |  | did not display any anti-angiogenic activity; also recorded: inactive |  |
| YEVHHQKLVFFAEDVGSNKGAIIGLM (listed as Homo sapiens) [Aβ10-35] |  | most active | Total length of capillary tubes (percentage of control): post hoc difference from control ([1]; 5 and 10 μM doses, P<0.005, 24 hours, n≧8): significant differences |
| heparin [reference compound] |  |  | reversal of inhibition of capillary tube formation induced by Aβ1-42 ([1]; heparin 500 μg/ml and 1 mg/ml added with Aβ1-42, P<0.001 vs Aβ alone): effectively reverse; also recorded: effectively reversed inhibition; inhibition of angiogenesis (capillary tube formation) by heparin alone ([1]; heparin alone, 0.5 or 1 mg/ml): slight inhibition |
